Test [1] concerns the target T1, androgen receptor (AR-LBD) (Rattus norvegicus, UniProt P15207).
T1 construct: 5 μL of 2×AR-LBD/Fluoromone AL Red Complex contained in the kit; purchased Invitrogen
T1 sequence (P15207 651-882 limits assumed): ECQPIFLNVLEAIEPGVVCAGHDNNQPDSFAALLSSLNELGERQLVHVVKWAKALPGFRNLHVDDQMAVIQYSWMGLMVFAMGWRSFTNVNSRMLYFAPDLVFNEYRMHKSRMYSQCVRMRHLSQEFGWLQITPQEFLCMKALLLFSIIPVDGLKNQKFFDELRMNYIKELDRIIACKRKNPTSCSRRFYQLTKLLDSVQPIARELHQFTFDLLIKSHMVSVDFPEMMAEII
The test can be described thus: Evaluation of androgen receptor affinity (PolarScreen Androgen Receptor Competitor Assay Kit, Red; fluorescence polarization). Conditions: 22° C. for 5 hours, relative to binding rate of 1 μM DHT, read-out: AR affinity (pEC50) (converted). The procedure, abridged: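 Duplicate wells; compound plus AR-LBD tracer complex incubated 22° C for 5 h, then FP measured. Effect compared with 1 μM DHT; 50%-effect concentration expressed as pEC50.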

The next test deals with T2, human androgen receptor (Homo sapiens, UniProt P10275).
T2 construct: expressed in transfected cells; host or cells: HEK293
T2 sequence (P10275 1-920): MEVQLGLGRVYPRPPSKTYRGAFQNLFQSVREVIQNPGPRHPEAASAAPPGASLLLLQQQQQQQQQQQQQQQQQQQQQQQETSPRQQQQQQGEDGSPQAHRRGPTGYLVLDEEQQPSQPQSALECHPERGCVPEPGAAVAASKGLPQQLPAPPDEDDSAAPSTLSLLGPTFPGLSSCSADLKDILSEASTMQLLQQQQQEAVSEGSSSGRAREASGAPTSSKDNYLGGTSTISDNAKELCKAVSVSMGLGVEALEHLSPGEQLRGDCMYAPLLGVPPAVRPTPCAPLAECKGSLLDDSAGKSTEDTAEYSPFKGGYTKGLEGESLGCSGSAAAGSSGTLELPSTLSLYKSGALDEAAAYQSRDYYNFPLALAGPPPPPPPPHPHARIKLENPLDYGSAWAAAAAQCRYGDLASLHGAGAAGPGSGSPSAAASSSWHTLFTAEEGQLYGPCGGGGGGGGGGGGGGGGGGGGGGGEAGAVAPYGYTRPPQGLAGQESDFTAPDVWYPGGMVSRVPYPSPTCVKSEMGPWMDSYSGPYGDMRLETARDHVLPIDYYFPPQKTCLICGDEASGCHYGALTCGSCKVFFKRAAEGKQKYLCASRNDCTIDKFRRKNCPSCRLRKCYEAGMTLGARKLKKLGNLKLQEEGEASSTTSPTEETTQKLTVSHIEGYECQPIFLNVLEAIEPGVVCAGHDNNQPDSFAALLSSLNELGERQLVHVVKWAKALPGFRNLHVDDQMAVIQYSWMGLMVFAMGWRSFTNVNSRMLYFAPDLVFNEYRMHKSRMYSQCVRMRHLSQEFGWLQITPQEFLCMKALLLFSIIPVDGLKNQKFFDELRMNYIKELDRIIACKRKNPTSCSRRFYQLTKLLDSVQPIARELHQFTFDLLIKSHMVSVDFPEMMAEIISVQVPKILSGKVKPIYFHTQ
Briefly: Reporter assay of an androgen receptor responsive sequence (luciferase, transiently transfected HEK293 cells). The class given is cell-based. Conditions: 24 hours incubation, relative to activity of 100 nM DHT, read-out: AR transcriptive activity (pEC50) (converted). In outline: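 Agonism scored as pEC50, fitted by 4-parameter curve against the response to 100 nM DHT, from dual-luciferase readout after 24 h compound treatment. Cells were HEK293 co-transfected (3 h) with human AR expression vector, androgen-responsive firefly reporter and Renilla control, in charcoal-stripped serum.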
For orientation: Reporter assays use an easily measured gene product as a stand-in for the process of interest.

For `Cc1sc(N(CCC2CCCCC2)Cc2ccc(OC(F)(F)F)cc2)nc1C(=O)NS(C)(=O)=O` [Compound 732, 2-[2-cyclohexylethyl-[[4-(trifluoromethoxy)phenyl]methyl]amino]-5-methyl-N-methylsulfonyl-thiazole-4-carboxamide], the EC50 is 100 nM in test [1] and above 10000 nM on human androgen receptor.
The matching figures for `Cc1sc(N(CC(=O)c2ccccc2)Cc2ccccc2)nc1C(=O)NS(C)(=O)=O` [Compound 463, 2-[benzyl(phenacyl)amino]-5-methyl-N-methylsulfonyl-thiazole-4-carboxamide]: 316 nM and 5010 nM.
The matching figures for `Cc1sc(N(CCCC(C)C)c2ccc(C#N)cc2)nc1C(=O)NS(C)(=O)=O` [Compound 438, 2-(4-cyano-N-isohexyl-anilino)-5-methyl-N-methylsulfonyl-thiazole-4-carboxamide]: 25.1 nM and 398 nM.
The matching figures for `Cc1sc(N(CCc2ccc(C#N)cc2)Cc2ccc(Cl)cc2)nc1C(=O)NS(=O)(=O)C(F)(F)F` [Compound 715, 2-[(4-chlorophenyl)methyl-[2-(4-cyanophenyl)ethyl]amino]-5-methyl-N-(trifluoromethylsulfonyl)thiazole-4-carboxamide]: 126 nM and 2510 nM.
Turning to `COc1cc(Cl)ccc1CN(c1ccc(C#N)cc1)c1nc(C(=O)NS(C)(=O)=O)c(C)s1` [Compound 118, 2-[N-[(4-chloro-2-methoxy-phenyl)methyl]-4-cyano-anilino]-5-methyl-N-methylsulfonyl-thiazole-4-carboxamide], the EC50 in test [1] is 50.1 nM; at human androgen receptor it was 398 nM.
The matching figures for `Cc1sc(N(Cc2ccc(OCc3ccncc3)cc2)c2ccc(C#N)cc2)nc1C(=O)NS(C)(=O)=O` [Compound 571, 2-[4-cyano-N-[[4-(4-pyridylmethoxy)phenyl]methyl]anilino]-5-methyl-N-methylsulfonyl-thiazole-4-carboxamide]: 158 nM and above 10000 nM.
The matching figures for `Cc1sc(N(CCc2ccc(Cl)cc2)Cc2ccc(OC(F)(F)F)cc2)nc1C(=O)NS(=O)(=O)C(F)(F)F` [Compound 704, 2-[2-(4-chlorophenyl)ethyl-[[4-(trifluoromethoxy)phenyl]methyl]amino]-5-methyl-N-(trifluoromethylsulfonyl)thiazole-4-carboxamide]: 316 nM and above 10000 nM.
For `Cc1oc(N(Cc2ccc(Cl)c(Cl)c2)c2ccc(C#N)cc2)nc1C(=O)NS(C)(=O)=O` [Compound 608, 2-[4-cyano-N-[(3,4-dichlorophenyl)methyl]anilino]-5-methyl-N-methylsulfonyl-oxazole-4-carboxamide], the EC50 was 31.6 nM in test [1] and 316 nM on human androgen receptor.
Regarding `Cc1sc(N(CCc2ccc(Cl)cc2)CC2CCCCC2)nc1C(=O)NS(=O)(=O)Cc1cccnc1` [Compound 699, 2-[2-(4-chlorophenyl)ethyl-(cyclohexylmethyl)amino]-5-methyl-N-(3-pyridylmethylsulfonyl)thiazole-4-carboxamide], the EC50 was 63.1 nM in test [1] and above 10000 nM on human androgen receptor.
The matching figures for `Cc1sc(N(Cc2ccc(OC(F)F)cc2)c2ccc(C(F)(F)F)nc2)nc1C(=O)NS(C)(=O)=O` [Compound 472, 2-[[4-(difluoromethoxy)phenyl]methyl-[6-(trifluoromethyl)-3-pyridyl]amino]-5-methyl-N-methylsulfonyl-thiazole-4-carboxamide]: 126 nM and 398 nM.
The matching figures for `Cc1sc(N(Cc2ccc(OC(F)(F)F)cc2)c2ccc(C#N)cc2)nc1C(=O)NS(=O)(=O)CCCO` [Example 200, 2-[4-cyano-N-[[4-(trifluoromethoxy)phenyl]methyl]anilino]-N-(3-hydroxypropylsulfonyl)-5-methyl-thiazole-4-carboxamide]: 25.1 nM and 316 nM.
The matching figures for `Cc1ccc(CN(c2ccc(C#N)cc2)c2nc(C(=O)NS(C)(=O)=O)c(C)s2)cc1F` [Compound 115, 2-[4-cyano-N-[(3-fluoro-4-methyl-phenyl)methyl]anilino]-5-methyl-N-methylsulfonyl-thiazole-4-carboxamide]: 31.6 nM and 31.6 nM.
Regarding `CS(=O)(=O)NC(=O)c1nc(N(Cc2cccc(F)c2)c2ccc(C#N)cc2)sc1Cl` [Example 258, 5-chloro-2-[4-cyano-N-[(3-fluorophenyl)methyl]anilino]-N-methylsulfonyl-thiazole-4-carboxamide], the EC50 in test [1] was 63.1 nM; at human androgen receptor, 100 nM.
The matching figures for `Cc1sc(N(Cc2ccc(OC(F)F)c(F)c2)c2ccc(C#N)cc2)nc1C(=O)NS(C)(=O)=O` [Example 172, 2-[4-cyano-N-[[4-(difluoromethoxy)-3-fluoro-phenyl]methyl]anilino]-5-methyl-N-methylsulfonyl-thiazole-4-carboxamide]: 31.6 nM and 31.6 nM.
Regarding `Cc1sc(N(Cc2cc(F)cc(C(F)(F)F)c2)c2ccc(C#N)cc2)nc1C(=O)NS(C)(=O)=O` [Compound 416, 2-[4-cyano-N-[[3-fluoro-5-(trifluoromethyl)phenyl]methyl]anilino]-5-methyl-N-methylsulfonyl-thiazole-4-carboxamide], the EC50 is 25.1 nM in test [1] and 158 nM on human androgen receptor.
The matching figures for `COCCCS(=O)(=O)NC(=O)c1nc(N(Cc2ccc(OC(F)F)cc2)c2ccc(C#N)cc2)sc1C1CC1` [Compound 666, 2-[4-cyano-N-[[4-(difluoromethoxy)phenyl]methyl]anilino]-5-cyclopropyl-N-(3-methoxypropylsulfonyl)thiazole-4-carboxamide]: 39.8 nM and above 10000 nM.
The matching figures for `Cc1sc(N(Cc2cccc(N3CCCC3)c2)c2ccc(C#N)cc2)nc1C(=O)NS(C)(=O)=O` [Example 216, 2-[4-cyano-N-[(3-pyrrolidin-1-ylphenyl)methyl]anilino]-5-methyl-N-methylsulfonyl-thiazole-4-carboxamide]: 63.1 nM and 1260 nM.
The matching figures for `COCCCS(=O)(=O)NC(=O)c1nc(N(Cc2ccc(C(F)(F)F)c(C#N)c2)c2ccc(C#N)cc2)sc1C` [Compound 534, 2-[4-cyano-N-[[3-cyano-4-(trifluoromethyl)phenyl]methyl]anilino]-N-(3-methoxypropylsulfonyl)-5-methyl-thiazole-4-carboxamide]: 100 nM and 158 nM.
Consider `Cc1sc(N(CCc2ccc(OC(F)F)cc2)Cc2ccccc2)nc1C(=O)NS(C)(=O)=O` [Compound 160, 2-[benzyl-[2-[4-(difluoromethoxy)phenyl]ethyl]amino]-5-methyl-N-methylsulfonyl-thiazole-4-carboxamide], for which the EC50 in test [1] was 100 nM; on human androgen receptor, 501 nM.
The matching figures for `Cc1sc(N(Cc2ccc(F)c(F)c2)c2ccc(C#N)cc2)nc1C(=O)NS(C)(=O)=O` [Compound 97, 2-[4-cyano-N-[(3,4-difluorophenyl)methyl]anilino]-5-methyl-N-methylsulfonyl-thiazole-4-carboxamide]: 50.1 nM and 31.6 nM.
The matching figures for `Cc1sc(N(Cc2ccc(Br)c(Cl)c2)c2ccc(C#N)cc2)nc1C(=O)NS(C)(=O)=O` [Compound 528, 2-[N-[(4-bromo-3-chloro-phenyl)methyl]-4-cyano-anilino]-5-methyl-N-methylsulfonyl-thiazole-4-carboxamide]: above 2000 nM and 7940 nM.
The matching figures for `Cc1sc(N(CC2=CCCCC2)c2ccc(C#N)cc2)nc1C(=O)NS(C)(=O)=O` [Compound 366, 2-[4-cyano-N-(cyclohexen-1-ylmethyl)anilino]-5-methyl-N-methylsulfonyl-thiazole-4-carboxamide]: 39.8 nM and 50.1 nM.

These data come from patent US10689354B2, “Aminoazole derivative” (Teijin Pharma Limited, priority 2015, dated 2020).
